How the values were obtained:
[1] = target: T1, APH(3′)-IIIa (aminoglycoside phosphotransferase(3′)-IIIa) (Enterococcus faecalis, UniProt P0A3Y5); assay: rapid quench flow, total ADP by HPLC; type: biochemical; settings: 20 μM ADP added together with 20 μM ATP, 5 μM enzyme, 100 μM KanA, 25 °C, pH 7.5; competes with ATP for E·KanA; also the reaction product
T1 construct: gene aphA; recombinant, N-terminal 6His-tag kept (pET15b), E. coli BL21(DE3)

[2] = target: T1, APH(3′)-IIIa (aminoglycoside phosphotransferase(3′)-IIIa); assay: quench flow and coupled-assay stopped flow, ADP production; type: biochemical; settings: 100 μM KanA, 200 μM ATP, 0.2 μM enzyme, 25 °C, pH 7.5; KanA also binds the E·ADP complex (uncompetitive-type abortive complex)

T1 sequence (P0A3Y5 whole entry): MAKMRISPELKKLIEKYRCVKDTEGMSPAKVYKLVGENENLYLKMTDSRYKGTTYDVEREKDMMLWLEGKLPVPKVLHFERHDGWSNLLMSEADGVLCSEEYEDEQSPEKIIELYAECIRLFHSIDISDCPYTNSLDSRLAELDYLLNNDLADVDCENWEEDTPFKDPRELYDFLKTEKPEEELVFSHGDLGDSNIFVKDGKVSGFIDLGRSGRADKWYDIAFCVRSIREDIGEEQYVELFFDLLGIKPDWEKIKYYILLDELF

Row | Structure (SMILES) | % reduction of kss and Aburst [1] | quench flow and coupled-assay stopped flow, ADP production [2]
1 | Nc1ncnc2c1ncn2[C@@H]1O[C@H](COP(=O)(O)OP(=O)(O)O)[C@@H](O)[C@H]1O [ADP] | ~ 50% | –
2 | NC[C@H]1O[C@H](O[C@H]2[C@H](O)[C@@H](O[C@H]3O[C@H](CO)[C@@H](O)[C@H](N)[C@H]3O)[C@H](N)C[C@@H]2N)[C@H](O)[C@@H](O)[C@@H]1O [kanamycin A] | – | The initial kss determined by the two methods were identical

Source: PMC3510435 (Febs Letters, 2012)
